The values below are quoted from earlier work in US20080032954A1, “Vascular Damaging Agents for Administration as an Intravenous Infusion” (priority 2004, published 2008).

For data set [1] the following is noted: patients, 30 minute intravenous infusion once weekly.
Data set [2] relates to proliferating endothelial cells.
Another data set concerns tumour. Conditions: nude rats.
For data set [3] the following is noted: phase I study, patients with advanced cancer.
The conditions of data set [4]: patients, intravenous infusion at three-week intervals.
The mark [5] stands for this setting: 20 mg/kg as 24-hour subcutaneous infusion versus 5 to 10 second IV bolus.

SMILES strings stand for the structures.

`COc1ccc(/C=C\c2cc(OC)c(OC)c(OC)c2)cc1NC(=O)[C@@H](N)CO` [AVE8062A]: the hypotension result in data set [1] was “instances of asymptomatic hypotension”.
For the compound `COc1cc2c(c(OC)c1OC)-c1ccc(OP(=O)(O)O)cc1[C@@H](NC(C)=O)CC2` [ZD6126, (5S)-5-(acetylamino)-9,10,11-trimethoxy-6,7-dihydro-5H-dibenzo[a,c]cyclohepten-3-yl dihydrogen phosphate], under “one of the two patients with troponin I elevation, 10 minute IV infusion once every three weeks”, the “ischemic changes on ECG” value was “reversible grade 2 ischemic changes on ECG”. Besides, the “elevation in troponin I” value (patients, 10 minute intravenous infusion once every three weeks) is on record as “two patients exhibited grade 3 transient asymptomatic elevation in troponin I”. For the same compound, where the note is “the other patient with troponin I elevation, 10 minute IV infusion once every three weeks”, the blood pressure change entry is listed as “increase in blood pressure one hour after dosing”. Also, in data set [2], the “effect on tubulin cytoskeleton and cell shape” value was “disrupts the tubulin cytoskeleton causing rounding up and/or detachment of proliferating endothelial cells”. Further, in the data set on tumour (setting [5]), the “toxicity compared to single intravenous bolus” value is recorded as “significant increases in toxicity” and the “tumour necrosis compared to single intravenous bolus” value is on record as “no increase in tumour necrosis”. Moreover, in the data set with tumour (50 mg/kg as 24-hour subcutaneous infusion, in contrast to bolus of the same dose), the tolerability result is listed as “not tolerated”.
Regarding `COc1ccc(/C=C\c2cc(OC)c(OC)c(OC)c2)cc1OP(=O)(O)O` [combretastatin A4 phosphate], the “hemodynamic and cardiac toxic events” value in data set [3] was “numerous hemodynamic and cardiac toxic events were observed”.
With `COc1ccc(/C=C\c2cc(OC)c(OC)c(OC)c2)cc1O` [combretastatin A4], the “toxicity profile, 10-minute versus 60-minute infusion” value in data set [4] is “no difference in the toxicity profile”.
